Experimental findings from US20240109912A1, “TRICYCLIC PYRIMIDINES AS CYCLIN-DEPENDENT KINASE 7 (CDK7) INHIBITORS” (JANSSEN PHARMACEUTICA NV, priority 2020, published 2024) are described below.

Where two headings read alike, the source gives them in different places. Where only a bound is given, the exact number is not on record here.

Experiment [1] has as its system RNA polymerase II Serine 5 phosphorylation (CDK7) in A549 cells.
The test system of experiment [2] is RNA polymerase II Serine 5 phosphorylation in A549 cells overexpressing CDK7 mutant (C312S). Nature of the experiment: Imaging-based cellular RNA PolII Ser5 phosphorylation assay in A549 cells overexpressing CDK7-mutant (C312S). The class given is cell-based, human. Particulars: Homo sapiens, A549, A549 cells overexpressing CDK7 mutant (C312S); read-out: CDK7_ A549 mutant hCDK7(pIC50) (converted). In a few lines:
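A stably transduced A549 pool overexpressing CDK7 C312S, a mutant that blocks covalent binding at Cys312, while retaining endogenous wild-type CDK7 was used. Ser5 phosphorylation was measured by imaging, and IC50 values were derived.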

For experiment [3], the target named is CDK7/cyclinH/MAT1 trimeric complex (Homo sapiens (Human), UniProt P50613). Nature of the experiment: In vitro CDK7 assay, potency of irreversible covalent inhibitors (kinact/KI).
The mark [4] stands for this setting: CDK7 (20 nM enz.) (KI, μM), 20 nM enz.
Setting [5] is: read-out: CDK7 (20 nM enz.) (kinact, s^−1), 20 nM enz.
Where [6] appears, read: read-out: CDK7 (20 nM enz.) (kinact/ KI, M^−1*s^−1), 20 nM enz.

Chain of CDK7/cyclinH/MAT1 trimeric complex (P50613 whole entry): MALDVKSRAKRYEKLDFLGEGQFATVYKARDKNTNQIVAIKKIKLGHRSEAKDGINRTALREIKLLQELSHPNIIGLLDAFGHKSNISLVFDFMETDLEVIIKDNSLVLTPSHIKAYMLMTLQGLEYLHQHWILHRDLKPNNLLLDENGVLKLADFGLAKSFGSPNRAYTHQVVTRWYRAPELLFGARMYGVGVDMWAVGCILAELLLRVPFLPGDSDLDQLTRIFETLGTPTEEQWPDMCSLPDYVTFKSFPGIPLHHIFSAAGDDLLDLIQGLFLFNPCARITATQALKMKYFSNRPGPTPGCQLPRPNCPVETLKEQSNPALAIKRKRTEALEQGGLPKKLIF
Chain of CDK7/cyclinH/MAT1 trimeric complex (P51946 whole entry partner): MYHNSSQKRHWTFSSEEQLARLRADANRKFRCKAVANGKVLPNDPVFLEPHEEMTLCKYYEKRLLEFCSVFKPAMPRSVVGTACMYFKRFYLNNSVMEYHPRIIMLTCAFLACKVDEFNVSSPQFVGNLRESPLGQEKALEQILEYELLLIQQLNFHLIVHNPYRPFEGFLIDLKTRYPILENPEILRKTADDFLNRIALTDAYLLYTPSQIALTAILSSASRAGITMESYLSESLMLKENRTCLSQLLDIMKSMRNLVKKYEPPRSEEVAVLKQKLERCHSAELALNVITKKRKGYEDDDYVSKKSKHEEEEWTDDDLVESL
Chain of CDK7/cyclinH/MAT1 trimeric complex (P51948 whole entry partner): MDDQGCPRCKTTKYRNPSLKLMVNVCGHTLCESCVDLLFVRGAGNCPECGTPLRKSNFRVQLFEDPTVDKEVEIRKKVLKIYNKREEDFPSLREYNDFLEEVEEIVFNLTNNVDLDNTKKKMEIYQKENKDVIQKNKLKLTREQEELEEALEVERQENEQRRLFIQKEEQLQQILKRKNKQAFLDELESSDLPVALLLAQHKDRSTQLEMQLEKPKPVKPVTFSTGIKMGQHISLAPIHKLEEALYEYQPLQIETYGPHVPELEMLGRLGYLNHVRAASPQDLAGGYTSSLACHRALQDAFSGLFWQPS

Take `C=CC(=O)N1CC[C@H](N2CCC(c3cc(F)c4c(c3)Nc3ncnc(N5CCOCC5)c3CO4)CC2)C1` (single isomer, unassigned) [compound 50]: the IC50 in experiment [1] was 200 nM; in experiment [2], over 10000 nM. Moreover, in experiment [3] (setting [4]), the Ki is 0.302 µM. Also, the kinact in experiment [3] (setting [5]) amounted to 7.72e-05 s⁻¹. Moreover, in experiment [3] (setting [6]), the kinact/KI is 256 M⁻¹ s⁻¹.
Take `C=CC(=O)N1CC[C@@H](N2CCC(c3cc(F)c4c(c3)Nc3ncnc(N5CCOCC5)c3CO4)CC2)C1` (single isomer, unassigned) [compound 51]: the IC50 in experiment [1] was 324 nM; in experiment [2], over 10000 nM. Besides, the Ki in experiment [3] (setting [4]) was determined as 0.643 µM. Also, the kinact in experiment [3] (setting [5]) was 8.79e-05 s⁻¹. In addition, the kinact/KI in experiment [3] (setting [6]) was determined as 137 M⁻¹ s⁻¹.
In the same order, the values of `C=CC(=O)N1CCC(N2CCC(c3ccc4c(c3)Nc3ncnc(N5CCOCC5)c3CO4)CC2)C(F)C1` (stereo not shown) [compound 15] are 955 nM, over 10000 nM, 0.632 µM, 5.72e-05 s⁻¹ and 90.5 M⁻¹ s⁻¹.
With `C=CC(=O)N1CC(N2CCC(c3ccc4c(c3)Nc3ncnc(N5CCOCC5)c3[C@H](C)O4)CC2)C1` (single isomer, unassigned) [compound 57], the IC50 in experiment [1] was 263 nM; in experiment [2], over 10000 nM. This compound yielded a Ki in experiment [3] (setting [4]) of 0.0876 µM. The kinact in experiment [3] (setting [5]) came to 7.7e-05 s⁻¹. The kinact/KI in experiment [3] (setting [6]) worked out at 879 M⁻¹ s⁻¹.
As for `C=CC(=O)N1CC(N2CCC(c3cc(C)c4c(c3)Nc3ncnc(-c5ccnn5C)c3CO4)CC2)C1` [compound 80], the values for the IC50 in experiment [1] and in experiment [2] were 219 nM and over 10000 nM, respectively. This compound registered a Ki in experiment [3] (setting [4]) of 0.32 µM. The kinact in experiment [3] (setting [5]) amounted to 4.18e-05 s⁻¹. Moreover, the kinact/KI in experiment [3] (setting [6]) was determined as 131 M⁻¹ s⁻¹.
As for `C=CC(=O)N1CC(N2CCC(c3cc(C)c4c(c3)Nc3ncnc(N5CCC(S(C)(=O)=O)C5)c3CO4)CC2)C1` (stereo not shown) [compound 65], the figures for the IC50 in experiment [1] and in experiment [2] were 6460 nM and over 10000 nM, respectively. This compound also registered a Ki in experiment [3] (setting [4]) of 4.12 µM. The kinact in experiment [3] (setting [5]) turned out to be 0.0001 s⁻¹. Also, the kinact/KI in experiment [3] (setting [6]) is 24.3 M⁻¹ s⁻¹.
For the compound `C#Cc1cc(C2CCN(C3CN(C(=O)C#CC)C3)CC2)cc2c1O[C@H](C)c1c(ncnc1N1CCS(=O)(=O)CC1)N2` [compound 192], the IC50 in experiment [1] was 457 nM; in experiment [2], over 10000 nM. Further, the Ki in experiment [3] (setting [4]) is 0.856 µM. Further, the kinact in experiment [3] (setting [5]) came out at 8.38e-05 s⁻¹. Besides, the kinact/KI in experiment [3] (setting [6]) is 103 M⁻¹ s⁻¹.
On to `C=CC(=O)N1CC(N2CCC(c3cc4c(c(C5CC5)c3)OCc3c(ncnc3N3CCOCC3)N4)CC2)C1` [compound 47], for which the IC50 in experiment [1] is 245 nM; in experiment [2] it was over 10000 nM. The Ki in experiment [3] (setting [4]) turned out to be 0.175 µM. For the same compound, in experiment [3] (setting [5]), the kinact worked out at 7.35e-05 s⁻¹. For the same compound, the kinact/KI in experiment [3] (setting [6]) came out at 420 M⁻¹ s⁻¹.
As for `C=CC(=O)N1CC(N2CCC(c3ccc4c(c3)Nc3ncnc(N5CCOCC5)c3[C@@H](C)O4)CC2)C1` (single isomer, unassigned) [compound 56], the figures for the IC50 in experiment [1] and in experiment [2] were 3240 nM and over 10000 nM, respectively. The Ki in experiment [3] (setting [4]) came to 4.2 µM. Moreover, the kinact in experiment [3] (setting [5]) was found to be 8.48e-05 s⁻¹. In addition, in experiment [3] (setting [6]), the kinact/KI came out at 20.2 M⁻¹ s⁻¹.
In the case of `C=CC(=O)N1CC(N2CCC(c3cc(C)c4c(c3)Nc3ncnc(N5CCS(=N)(=O)CC5)c3CO4)CC2)C1` [compound 72], the IC50 in experiment [1] is 138 nM; in experiment [2], 832 nM. For the same compound, the kinact/KI in experiment [3] (read-out: CDK7 (20 nM enz.) (kobs/[I], M^−1*s^−1), 20 nM enz.) was determined as 1090 M⁻¹ s⁻¹.
For `C=CC(=O)N1CCC(N2CC(c3cc(C#N)c4c(c3)Nc3ncnc(N5CCOCC5)c3CO4)C2)CC1` [compound 120], the IC50 is 525 nM in experiment [1] and over 10000 nM in experiment [2]. This compound showed a Ki in experiment [3] (setting [4]) of 0.295 µM. Besides, in experiment [3] (setting [5]), the kinact is 3.8e-05 s⁻¹. Moreover, in experiment [3] (setting [6]), the kinact/KI was 129 M⁻¹ s⁻¹.
With `C=CC(=O)N1CC(N2CC[C@H](c3ccc4c(c3)Nc3ncnc(N5CCOCC5)c3CO4)C2)C1` (single isomer, unassigned) [compound 9], the IC50 in experiment [1] is 2090 nM; in experiment [2] it was over 10000 nM. The compound further returned a Ki in experiment [3] (CDK7 (KI(μM)), Table B) of 0.72 µM. The kinact in experiment [3] (read-out: CDK7 (kinact, s^−1), Table B) was 0.000216 s⁻¹. For the same compound, the kinact/KI in experiment [3] (read-out: CDK7 (kinact/KI, M^−1*s^−1), Table B) stood at 306 M⁻¹ s⁻¹.
